Assay results reported in ChEMBL document CHEMBL5291721, “A preclinical secondary pharmacology resource illuminates target-adverse drug reaction associations of marketed drugs” (Nat Commun, 2023).

Legend:
[1] = molecular target: Adenosine receptor A2a (Homo sapiens, UniProt P29274)
[2] = molecular target: Cannabinoid receptor 1 (Homo sapiens, UniProt P21554)
[3] = molecular target: T1, Endothelin-1 receptor (Homo sapiens, UniProt P25101)
T1 sequence (P25101 whole entry): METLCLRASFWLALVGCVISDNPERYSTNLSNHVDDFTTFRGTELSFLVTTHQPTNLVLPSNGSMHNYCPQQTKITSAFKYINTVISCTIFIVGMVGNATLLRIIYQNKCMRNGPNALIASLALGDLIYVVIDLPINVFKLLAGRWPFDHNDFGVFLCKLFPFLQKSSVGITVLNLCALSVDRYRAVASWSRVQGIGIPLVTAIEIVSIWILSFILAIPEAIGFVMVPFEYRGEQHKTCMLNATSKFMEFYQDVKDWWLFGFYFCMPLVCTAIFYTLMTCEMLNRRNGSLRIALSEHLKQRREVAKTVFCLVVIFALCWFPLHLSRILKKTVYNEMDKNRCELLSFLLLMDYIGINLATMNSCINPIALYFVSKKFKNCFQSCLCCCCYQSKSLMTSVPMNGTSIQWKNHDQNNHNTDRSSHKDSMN

[4] = molecular target: T2, Estrogen receptor (Homo sapiens, UniProt P03372)
T2 sequence (P03372 whole entry): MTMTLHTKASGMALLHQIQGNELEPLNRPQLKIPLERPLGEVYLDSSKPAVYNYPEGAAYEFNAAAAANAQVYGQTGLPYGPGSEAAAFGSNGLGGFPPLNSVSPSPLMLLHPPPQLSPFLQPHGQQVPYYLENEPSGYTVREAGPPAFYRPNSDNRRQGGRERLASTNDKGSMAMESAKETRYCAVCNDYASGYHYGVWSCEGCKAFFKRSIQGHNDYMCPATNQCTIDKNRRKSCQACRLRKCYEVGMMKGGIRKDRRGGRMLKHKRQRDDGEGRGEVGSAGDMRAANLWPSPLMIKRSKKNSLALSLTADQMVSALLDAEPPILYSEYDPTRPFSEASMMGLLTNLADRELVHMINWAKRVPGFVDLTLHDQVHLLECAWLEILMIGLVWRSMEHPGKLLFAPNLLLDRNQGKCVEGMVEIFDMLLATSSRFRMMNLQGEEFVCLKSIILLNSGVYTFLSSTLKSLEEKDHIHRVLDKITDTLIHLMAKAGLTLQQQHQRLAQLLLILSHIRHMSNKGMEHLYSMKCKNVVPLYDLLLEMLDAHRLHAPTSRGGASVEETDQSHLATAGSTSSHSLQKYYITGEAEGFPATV

[5] = molecular target: T3, 5-hydroxytryptamine receptor 1A (Homo sapiens, UniProt P08908); assay type: functional, cell-based
T3 sequence (P08908 whole entry): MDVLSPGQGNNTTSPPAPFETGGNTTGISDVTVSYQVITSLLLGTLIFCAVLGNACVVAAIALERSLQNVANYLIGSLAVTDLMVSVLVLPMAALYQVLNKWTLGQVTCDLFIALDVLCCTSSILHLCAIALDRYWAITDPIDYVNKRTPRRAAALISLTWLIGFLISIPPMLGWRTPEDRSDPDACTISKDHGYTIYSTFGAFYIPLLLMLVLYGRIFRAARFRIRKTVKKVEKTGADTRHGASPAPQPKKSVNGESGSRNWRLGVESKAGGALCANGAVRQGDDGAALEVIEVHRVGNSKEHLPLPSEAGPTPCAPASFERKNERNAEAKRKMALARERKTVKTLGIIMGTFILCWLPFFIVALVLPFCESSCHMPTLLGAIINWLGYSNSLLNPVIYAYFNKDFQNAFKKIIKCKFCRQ

[6] = molecular target: Motilin receptor (Homo sapiens, UniProt O43193)
Chain of Motilin receptor (O43193 whole entry): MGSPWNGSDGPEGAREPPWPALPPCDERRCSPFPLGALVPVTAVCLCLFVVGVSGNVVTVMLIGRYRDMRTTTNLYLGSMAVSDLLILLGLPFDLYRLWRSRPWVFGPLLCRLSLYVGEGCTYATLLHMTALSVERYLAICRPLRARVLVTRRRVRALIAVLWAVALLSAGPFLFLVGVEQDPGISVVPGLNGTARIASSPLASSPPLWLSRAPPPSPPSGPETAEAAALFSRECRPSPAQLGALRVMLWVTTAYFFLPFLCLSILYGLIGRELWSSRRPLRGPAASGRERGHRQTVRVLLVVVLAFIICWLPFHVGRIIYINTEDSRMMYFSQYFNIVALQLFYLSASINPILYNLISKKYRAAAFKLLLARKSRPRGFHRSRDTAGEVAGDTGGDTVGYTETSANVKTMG

[7] = molecular target: T4, Mu-type opioid receptor (Homo sapiens, UniProt P35372); experiment: biochemical; assay type: functional
T4 sequence (P35372 whole entry): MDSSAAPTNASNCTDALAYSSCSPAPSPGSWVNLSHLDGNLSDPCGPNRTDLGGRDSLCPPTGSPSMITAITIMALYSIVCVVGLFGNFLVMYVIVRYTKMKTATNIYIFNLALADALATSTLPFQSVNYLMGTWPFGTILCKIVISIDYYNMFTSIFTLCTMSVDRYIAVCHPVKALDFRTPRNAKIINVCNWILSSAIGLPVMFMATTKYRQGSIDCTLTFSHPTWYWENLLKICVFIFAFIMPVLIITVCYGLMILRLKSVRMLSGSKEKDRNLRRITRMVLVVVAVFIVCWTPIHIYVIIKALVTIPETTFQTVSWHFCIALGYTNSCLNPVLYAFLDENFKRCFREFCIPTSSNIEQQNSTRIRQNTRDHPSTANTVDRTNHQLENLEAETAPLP

[8] = molecular target: T5, Prostaglandin G/H synthase 1 (Rattus norvegicus, UniProt Q63921); assay type: functional
T5 sequence (Q63921 whole entry): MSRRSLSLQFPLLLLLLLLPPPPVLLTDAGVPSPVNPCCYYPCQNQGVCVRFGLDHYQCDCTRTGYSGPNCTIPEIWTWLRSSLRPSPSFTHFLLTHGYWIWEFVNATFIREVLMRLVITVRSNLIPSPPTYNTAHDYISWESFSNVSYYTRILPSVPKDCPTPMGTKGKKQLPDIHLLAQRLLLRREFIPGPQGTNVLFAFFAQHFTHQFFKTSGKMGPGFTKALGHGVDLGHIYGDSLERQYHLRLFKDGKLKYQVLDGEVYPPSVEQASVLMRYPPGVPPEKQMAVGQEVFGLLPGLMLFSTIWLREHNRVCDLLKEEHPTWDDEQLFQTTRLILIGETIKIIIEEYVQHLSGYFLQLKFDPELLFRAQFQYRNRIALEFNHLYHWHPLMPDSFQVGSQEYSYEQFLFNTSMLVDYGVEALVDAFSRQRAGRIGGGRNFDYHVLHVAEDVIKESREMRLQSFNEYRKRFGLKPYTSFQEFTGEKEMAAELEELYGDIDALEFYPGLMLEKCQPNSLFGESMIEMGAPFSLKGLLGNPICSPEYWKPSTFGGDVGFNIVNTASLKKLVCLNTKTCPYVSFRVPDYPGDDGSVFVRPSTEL

[9] = molecular target: T6, Equilibrative nucleoside transporter 1 (Homo sapiens, UniProt Q99808)
T6 sequence (Q99808 whole entry): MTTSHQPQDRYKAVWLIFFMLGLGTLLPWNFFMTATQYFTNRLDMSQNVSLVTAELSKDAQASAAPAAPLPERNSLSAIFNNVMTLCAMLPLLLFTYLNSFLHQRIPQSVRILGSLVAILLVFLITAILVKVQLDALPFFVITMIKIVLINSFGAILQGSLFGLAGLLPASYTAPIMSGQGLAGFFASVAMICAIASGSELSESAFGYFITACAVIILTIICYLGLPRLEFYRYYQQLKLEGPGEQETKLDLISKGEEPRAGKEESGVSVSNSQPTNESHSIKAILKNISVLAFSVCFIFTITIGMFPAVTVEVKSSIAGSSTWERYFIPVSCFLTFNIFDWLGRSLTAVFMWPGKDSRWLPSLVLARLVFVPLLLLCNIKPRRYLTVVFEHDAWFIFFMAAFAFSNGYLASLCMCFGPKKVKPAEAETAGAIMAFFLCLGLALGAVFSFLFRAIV

[10] = molecular target: T4, Mu-type opioid receptor
Note: assay procedure not described here.

Chain of Cannabinoid receptor 1 (P21554 whole entry): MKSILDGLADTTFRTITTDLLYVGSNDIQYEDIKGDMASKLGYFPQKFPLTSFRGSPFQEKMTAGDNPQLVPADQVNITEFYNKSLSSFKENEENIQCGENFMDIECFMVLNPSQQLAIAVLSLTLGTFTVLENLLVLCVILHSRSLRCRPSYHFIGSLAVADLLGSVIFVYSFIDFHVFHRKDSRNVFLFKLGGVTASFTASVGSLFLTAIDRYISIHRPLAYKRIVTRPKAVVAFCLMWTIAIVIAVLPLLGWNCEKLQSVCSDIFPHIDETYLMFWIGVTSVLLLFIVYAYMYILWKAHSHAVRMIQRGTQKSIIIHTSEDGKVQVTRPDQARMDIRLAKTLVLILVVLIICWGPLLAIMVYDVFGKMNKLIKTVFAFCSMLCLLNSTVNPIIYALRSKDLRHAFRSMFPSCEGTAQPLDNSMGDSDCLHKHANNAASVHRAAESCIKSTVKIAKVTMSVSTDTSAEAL
Chain of Adenosine receptor A2a (P29274 whole entry): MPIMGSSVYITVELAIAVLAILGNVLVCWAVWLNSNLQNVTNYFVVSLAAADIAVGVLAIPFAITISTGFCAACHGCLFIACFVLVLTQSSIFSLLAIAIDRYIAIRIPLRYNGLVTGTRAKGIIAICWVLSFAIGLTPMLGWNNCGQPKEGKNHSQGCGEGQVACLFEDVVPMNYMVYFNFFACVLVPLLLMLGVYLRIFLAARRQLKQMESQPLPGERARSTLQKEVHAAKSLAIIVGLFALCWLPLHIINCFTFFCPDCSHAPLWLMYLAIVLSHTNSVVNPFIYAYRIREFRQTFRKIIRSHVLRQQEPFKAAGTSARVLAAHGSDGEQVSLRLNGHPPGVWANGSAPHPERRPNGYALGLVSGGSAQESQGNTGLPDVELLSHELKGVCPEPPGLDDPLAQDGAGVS

| Compound | AC50 [1] | AC50 [2] | AC50 [3] | AC50 [4] | AC50 [5] | AC50 [6] | AC50 [7] | AC50 [8] | AC50 [9] | AC50 [10] |
| --- | --- | --- | --- | --- | --- | --- | --- | --- | --- | --- |
| N=C(N)NC(=O)c1nc(Cl)c(N)nc1N [AMILORIDE] | > 30 µM | > 30 µM | > 30 µM | > 30 µM | > 30 µM | > 30 µM | 4 µM | > 30 µM | > 30 µM | > 10 µM |
| COc1ccc(-c2cc(=S)ss2)cc1 [ANETHOLTRITHION] | 11 µM | – | > 10 µM | > 30 µM | > 30 µM | > 10 µM | > 30 µM | > 30 µM | 5.4 µM | – |
| CC(C)(C)NCC(O)COc1ccccc1C#N (centres undefined) [BUNITROLOL] | – | – | – | – | > 30 µM | – | > 30 µM | – | – | – |
| C[C@]12CCC(=O)C=C1C=C[C@@H]1[C@@H]2CC[C@@]2(C)[C@H]1CC[C@@]21CCC(=O)O1 [CANRENONE] | > 30 µM | – | > 30 µM | > 30 µM | > 30 µM | > 30 µM | > 30 µM | > 30 µM | > 30 µM | – |
| CN(C)CCC(O)(c1ccccc1)c1ccccc1Cl (centres undefined) [CHLOPHEDIANOL] | > 10 µM | > 10 µM | – | > 10 µM | > 10 µM | > 10 µM | – | > 10 µM | > 10 µM | > 30 µM |
| C[C@]12C=CC(=O)C=C1C(Cl)=C[C@@H]1[C@@H]2[C@@H](O)C[C@@]2(C)[C@H]1CC[C@]2(O)C(=O)CO [CLOPREDNOL] | > 30 µM | – | > 30 µM | > 30 µM | > 30 µM | 16 µM | > 30 µM | > 30 µM | > 30 µM | – |
| COc1cccc2c1C(=O)c1c(O)c3c(c(O)c1C2=O)C[C@@](O)(C(=O)CO)C[C@@H]3O[C@H]1C[C@H](N)[C@H](O)[C@H](C)O1 [DOXORUBICIN] | > 30 µM | > 10 µM | > 30 µM | 0.53 µM | > 30 µM | > 30 µM | – | > 30 µM | > 30 µM | > 30 µM |
| C[C@]12CCC(=O)C=C1[C@@H]1C[C@@H]1[C@H]1[C@@H]3[C@@H]4C[C@@H]4[C@@]4(CCC(=O)O4)[C@@]3(C)CC[C@@H]12 [DROSPIRENONE] | > 30 µM | > 30 µM | > 30 µM | – | > 30 µM | > 30 µM | > 30 µM | > 30 µM | > 30 µM | – |
| CC(C)(Oc1ccc(Cl)cc1)C(=O)OCCOC(=O)c1cccnc1 [ETOFIBRATE] | > 30 µM | – | > 30 µM | > 30 µM | – | > 30 µM | > 30 µM | > 30 µM | > 30 µM | – |
| CC(NCCC(c1ccccc1)c1ccccc1)c1ccccc1 (centres undefined) [FENDILINE] | – | – | – | – | – | – | – | – | – | 0.78 µM |
| CCn1c(=O)c2c(nc(/C=C/c3ccc(OC)c(OC)c3)n2C)n(CC)c1=O [ISTRADEFYLLINE] | – | – | – | – | – | – | – | > 30 µM | – | – |
| COc1ccc(C(=O)c2ccccc2)c(O)c1 [OXYBENZONE] | – | – | – | – | > 30 µM | – | > 30 µM | – | – | – |
| CN1C(C(=O)Nc2ccccn2)=C(OC(=O)/C=C/c2ccccc2)c2ccccc2S1(=O)=O [PIROXICAM CINNAMATE] | – | – | – | – | – | – | – | > 300 µM | – | – |
| C[C@]12C=CC(=O)C=C1CC[C@@H]1[C@@H]2[C@@H](O)C[C@@]2(C)[C@H]1CC[C@]2(O)C(=O)CO [PREDNISOLONE] | > 30 µM | > 10 µM | > 30 µM | > 30 µM | > 10 µM | > 10 µM | – | > 30 µM | > 30 µM | > 30 µM |
| CCC(=O)c1ccc2c(c1)N(CC(C)N(C)C)c1ccccc1S2 (centres undefined) [PROPIOMAZINE] | > 10 µM | > 10 µM | – | > 30 µM | > 30 µM | > 10 µM | – | > 10 µM | > 10 µM | 14 µM |
| Cc1cn(-c2cc(NC(=O)c3ccc(C)c(Nc4nccc(-c5cnccn5)n4)c3)cc(C(F)(F)F)c2)cn1 [RADOTINIB] | > 30 µM | – | – | – | – | – | – | > 30 µM | – | – |
| CN(C)[C@@H]1C(O)=C(C(=O)NCN2CCCC2)C(=O)[C@@]2(O)C(O)=C3C(=O)c4c(O)cccc4[C@@](C)(O)[C@H]3C[C@@H]12 [ROLITETRACYCLINE] | > 10 µM | > 10 µM | – | – | > 30 µM | > 10 µM | – | 0.653 µM | > 10 µM | > 30 µM |
| Cc1ccc(O)c([C@H](CCN(C(C)C)C(C)C)c2ccccc2)c1 [TOLTERODINE] | – | > 10 µM | – | – | > 10 µM | – | – | – | – | > 10 µM |
| CC1(C)O[C@@H]2C[C@H]3[C@@H]4CCC5=CC(=O)C=C[C@]5(C)[C@@]4(F)[C@@H](O)C[C@]3(C)[C@]2(C(=O)CO)O1 [TRIAMCINOLONE ACETONIDE] | > 30 µM | – | > 30 µM | – | > 30 µM | > 30 µM | > 30 µM | > 30 µM | – | – |
| Oc1cc(Cl)ccc1Oc1ccc(Cl)cc1Cl [TRICLOSAN] | > 30 µM | – | > 30 µM | – | > 30 µM | > 30 µM | > 30 µM | > 30 µM | – | – |
